We go through two compounds from patent US8394963B2, “Process for the preparation of esomeprazole magnesium dihydrate” (Cipla Limited, priority 2007, dated 2013).

SMILES strings stand for the structures.

The nature of the series: Solubility checked using 0.1 g of the sample at 25-30° C. It counts as physicochemical. To be noted: for Solubility (volume of solvent): 0.1 g of the sample at 25-30° C. From the text:
Polymorphs of a compound differ in physical properties such as crystal structure, dissolution and particle size.

For `COc1ccc2[nH]c(SCc3ncc(C)c(OC)c3C)nc2c1` [Form I, 5-methoxy-2-[[(4-methoxy-3,5-dimethyl-2-pyridinyl)-methyl]thio]-1H-benzimidazole, reference compound], the “Solubility (volume of solvent)” value stood at 2.0 mL (Acetone), 4.6 mL (Ethyl acetate), 10.0 mL (Isopropyl acetate) and 8.4 mL (Toluene).
Turning to `COc1ccc2[nH]c(SCc3ncc(C)c(OC)c3C)nc2c1` [Form II, 5-methoxy-2-[[(4-methoxy-3,5-dimethyl-2-pyridinyl)-methyl]thio]-1H-benzimidazole], the “Solubility (volume of solvent)” value (Acetone) was 4.6 mL, the “Solubility (volume of solvent)” value (Ethyl acetate) came out at 12.0 mL, the “Solubility (volume of solvent)” value (Isopropyl acetate) is 13.0 mL and the “Solubility (volume of solvent)” value (Toluene) was determined as 15.0 mL. Also, the “Solubility, comparison of the polymorphic forms” value (Form II compared with Form I of thio intermediate (compound III)) is “less soluble than Form I”.
